Values of other authors, collected in PubChem BioAssay AID1259409 (Chemical Carcinogenesis Research Information System (CCRIS), 2018).

Test system: rodent chemically induced tumor inhibition, incidence and multiplicity
Experiment: CCRIS tumor inhibitor studies

In the case of O=P(O)(O)OC1C(OP(=O)(O)O)C(OP(=O)(O)O)C(OP(=O)(O)O)C(OP(=O)(O)O)C1OP(=O)(O)O (stereo not given), the “tumour outcome (control, treated, inhibition, significance)” value (Carcinogen: 2,2'-DIHYDROXY-DI-N-PROPYLNITROSAMINE, 53609-64-6, N-ETHYL-N-HYDROXYETHYLNITROSAMINE, 13147-25-6, 3,2'-DIMETHYL-4-AMINO-, Carcinogen: 2,2'-DIHYDROXY-DI-N-PROPYLNITROSAMINE, 53609-64-6, N-ETHYL-N-HYDROXYETHYLNITROSAMINE, 13147-25-6, 3,2'-DIMETHYL-4-AMINO-, Dose [Inhibitor]: 0, 2% IN DIET FOR 32 WK BEGINNING 1 WK POST CARCINOGEN TREATMENT (STUDY DURATION: 36 WK), Route [Inhibitor]: ORAL, Species: RAT, Strain/Sex: F344/MALE, Target Tissue: Type of Lesion: LUNG: CARCINOMA, Dose [Carcinogen]: 1000 MG/KG BW DHPN TWICE, 1500 MG/KG BW EHEN TWICE, 75 MG/KG BW 3 TIMES ADMINISTERED OVER FIRST 3 WK, Promoter: NONE USED) is given as 1/14 (7%), 3/12 (25%), -257%, not significant, the “tumour outcome (control, treated, inhibition, significance)” value (Carcinogen: 2,2'-DIHYDROXY-DI-N-PROPYLNITROSAMINE, 53609-64-6, N-ETHYL-N-HYDROXYETHYLNITROSAMINE, 13147-25-6, 3,2'-DIMETHYL-4-AMINO-, Carcinogen: 2,2'-DIHYDROXY-DI-N-PROPYLNITROSAMINE, 53609-64-6, N-ETHYL-N-HYDROXYETHYLNITROSAMINE, 13147-25-6, 3,2'-DIMETHYL-4-AMINO-, Dose [Inhibitor]: 0, 2% IN DIET FOR 32 WK BEGINNING 1 WK POST CARCINOGEN TREATMENT (STUDY DURATION: 36 WK), Route [Inhibitor]: ORAL, Species: RAT, Strain/Sex: F344/MALE, Target Tissue: Type of Lesion: THYROID GLAND: ADENOMA, Dose [Carcinogen]: 1000 MG/KG BW DHPN TWICE, 1500 MG/KG BW EHEN TWICE, 75 MG/KG BW 3 TIMES ADMINISTERED OVER FIRST 3 WK, Promoter: NONE USED) is given as 3/14 (21%), 3/12 (25%), -19%, not significant and the “tumour outcome (control, treated, inhibition, significance)” value (Carcinogen: 2,2'-DIHYDROXY-DI-N-PROPYLNITROSAMINE, 53609-64-6, N-ETHYL-N-HYDROXYETHYLNITROSAMINE, 13147-25-6, 3,2'-DIMETHYL-4-AMINO-, Carcinogen: 2,2'-DIHYDROXY-DI-N-PROPYLNITROSAMINE, 53609-64-6, N-ETHYL-N-HYDROXYETHYLNITROSAMINE, 13147-25-6, 3,2'-DIMETHYL-4-AMINO-, Dose [Inhibitor]: 0, 2% IN DIET FOR 32 WK BEGINNING 1 WK POST CARCINOGEN TREATMENT (STUDY DURATION: 36 WK), Route [Inhibitor]: ORAL, Species: RAT, Strain/Sex: F344/MALE, Target Tissue: Type of Lesion: URINARY BLADDER: CARCINOMA, Dose [Carcinogen]: 1000 MG/KG BW DHPN TWICE, 1500 MG/KG BW EHEN TWICE, 75 MG/KG BW 3 TIMES ADMINISTERED OVER FIRST 3 WK, Promoter: NONE USED) is given as 1/14 (7%), 2/12 (17%), -143%, not significant. The outcome (Carcinogen: 2,2'-DIHYDROXY-DI-N-PROPYLNITROSAMINE, 53609-64-6, N-ETHYL-N-HYDROXYETHYLNITROSAMINE, 13147-25-6, 3,2'-DIMETHYL-4-AMINO-, Carcinogen: 2,2'-DIHYDROXY-DI-N-PROPYLNITROSAMINE, 53609-64-6, N-ETHYL-N-HYDROXYETHYLNITROSAMINE, 13147-25-6, 3,2'-DIMETHYL-4-AMINO-, Dose [Inhibitor]: 0, 2% IN DIET FOR 32 WK BEGINNING 1 WK POST CARCINOGEN TREATMENT (STUDY DURATION: 36 WK), Route [Inhibitor]: ORAL, Species: RAT, Strain/Sex: F344/MALE, Target Tissue: Type of Lesion: URINARY BLADDER: PAPILLOMA, Dose [Carcinogen]: 1000 MG/KG BW DHPN TWICE, 1500 MG/KG BW EHEN TWICE, 75 MG/KG BW 3 TIMES ADMINISTERED OVER FIRST 3 WK, Promoter: NONE USED) was 0/14 (0%), 6/12 (50%), -100%, p<0.01, the “tumour outcome (control, treated, inhibition, significance)” value (Carcinogen: 2,2'-DIHYDROXY-DI-N-PROPYLNITROSAMINE, 53609-64-6, N-ETHYL-N-HYDROXYETHYLNITROSAMINE, 13147-25-6, 3,2'-DIMETHYL-4-AMINO-, Carcinogen: 2,2'-DIHYDROXY-DI-N-PROPYLNITROSAMINE, 53609-64-6, N-ETHYL-N-HYDROXYETHYLNITROSAMINE, 13147-25-6, 3,2'-DIMETHYL-4-AMINO-, Dose [Inhibitor]: 0, 2% IN DIET FOR 32 WK BEGINNING 1 WK POST CARCINOGEN TREATMENT (STUDY DURATION: 36 WK), Route [Inhibitor]: ORAL, Species: RAT, Strain/Sex: F344/RAT, Target Tissue: Type of Lesion: LARGE INTESTINE: ADENOMA, Dose [Carcinogen]: 1000 MG/KG BW DHPN TWICE, 1500 MG/KG BW EHEN TWICE, 75 MG/KG BW 3 TIMES ADMINISTERED OVER FIRST 3 WK, Promoter: NONE USED) was 7/14 (50%), 5/12 (42%), 16%, not significant and the “tumour outcome (control, treated, inhibition, significance)” value (Carcinogen: 7,12-DIMETHYLBENZ(A)ANTHRACENE, 57-97-6, Dose [Inhibitor]: 0, 1 MG IN 100 µL ACETONE IMMEDIATELY AFTER CARCINOGEN DOSE 2/WK FOR 30 WK (STUDY DURATION: 30 WK), Route [Inhibitor]: DERMAL, Species: MOUSE, Strain/Sex: SWISS/FEMALE, Target Tissue: Type of Lesion: SKIN: TUMOR, Dose [Carcinogen]: 5 UG IN 100 µL ACETONE 2/WK FOR 30 WK) was 8/8 (100%), 4/14 (26%), 74%, not calculated. For the same compound, the “tumour outcome (control, treated, inhibition, significance)” value (Carcinogen: 7,12-DIMETHYLBENZ(A)ANTHRACENE, 57-97-6, Dose [Inhibitor]: 0, 5 MG IN 100 µL ACETONE IMMEDIATELY AFTER CARCINOGEN DOSE 2/WK FOR 30 WK (STUDY DURATION: 30 WK), Route [Inhibitor]: DERMAL, Species: MOUSE, Strain/Sex: SWISS/FEMALE, Target Tissue: Type of Lesion: SKIN: TUMOR, Dose [Carcinogen]: 5 UG IN 100 µL ACETONE 2/WK FOR 30 WK) was 8/8 (100%), 1/14 (6.6%), 93%, not calculated, the “tumour outcome (control, treated, inhibition, significance)” value (Carcinogen: 7,12-DIMETHYLBENZ(A)ANTHRACENE, 57-97-6, Dose [Inhibitor]: 0, 100 UG IN 100 µL ACETONE IMMEDIATELY AFTER CARCINOGEN DOSE 2/WK FOR 30 WK (STUDY DURATION: 30 WK), Route [Inhibitor]: DERMAL, Species: MOUSE, Strain/Sex: SWISS/FEMALE, Target Tissue: Type of Lesion: SKIN: TUMOR, Dose [Carcinogen]: 5 UG IN 100 µL ACETONE 2/WK FOR 30 WK) was 8/8 (100%), 5/13 (40%), 60%, not calculated and the “tumour outcome (control, treated, inhibition, significance)” value (Carcinogen: 7,12-DIMETHYLBENZ[A]ANTHRACENE [57-97-6], Dose [Inhibitor]: 2% IN DIET FOR 35 WK BEGINNING 1 WK POST LAST CARCINOGEN DOSE (STUDY DURATION: 35 WK), Route [Inhibitor]: ORAL, Species: RAT, Strain/Sex: SPRAGUE-DAWLEY/FEMALE, Target Tissue: Type of Lesion: MAMMARY GLAND: CARCINOMA, Dose [Carcinogen]: 50 MG/KG BW ONCE (STUDY DURATION: 36 WK), Promoter: NONE) was 14/15 (93%), 14/15 (93%), 0%, not significant. The “tumour outcome (control, treated, inhibition, significance)” value (Carcinogen: 7,12-DIMETHYLBENZ[A]ANTHRACENE [57-97-6], Dose [Inhibitor]: 2% IN DIET FOR 35 WK BEGINNING 1 WK POST LAST CARCINOGEN DOSE (STUDY DURATION: 35 WK), Route [Inhibitor]: ORAL, Species: RAT, Strain/Sex: SPRAGUE-DAWLEY/FEMALE, Target Tissue: Type of Lesion: MAMMARY GLAND: FIBROADENOMA, Dose [Carcinogen]: 50 MG/KG BW ONCE (STUDY DURATION: 36 WK), Promoter: NONE) was 3/15 (20%), 4/15 (27%), -35%, not significant.
